What was measured:
[1] = tested on: CWR22R; experiment: MTT growth inhibition, prostate cancer cell line CWR22R; type: cell-based, human; settings: for IC50: Homo sapiens, 22Rv1, MTT, average of three independent experiments
Experimental: (§1) This MTT assay was carried using human prostate cancer cell lines CWR22R, LAPC-4 and LnCap using Promega cell titer 96 nonradioactive cell proliferation kit. Cells were trypsinized and centrifuged at 1000 rpm for 5 minutes and the supernatant was aspirated. Cells were resuspended with HBSS to a concentration of […]. Cell suspension was diluted in serum containing medium to plate 2000 cells/well/0.2 ml. Cell suspension was transferred to sterile solution basin. Cells were plated using multichannel pipette set at 200 μl and incubated overnight for attachment. One plate was prepared for day 0 MTT assay as follows: 100 μl of media was removed from each well using multichannel pipette and 15 μl of MTT reagent was added. Plates were incubated at 37° C. for 4 hrs. 100 μl of STOP solution was added to each well and incubated at room temperature for 1 hour. Absorbance was measured at 570 and 650 nm on plate reader. All the media from the remaining plates were carefully removed and the cells were treated with the media containing drug. MTT assays were done on days 0, 3, 5 and 7. In the preliminary screening four BPU sulfur analogs 6l, 6h, 6n, 7d and 8h were screened and their activity was compared with compound 1.
(§2) Compounds with significant inhibitory activity in pancreatic cancer cells were further evaluated against prostate cancer cell lines in the MTT assay, (Mosmann, T., J. Immunol. Methods 65:55-63 (1983)) and the results were compared to those for compound 1 (Table 3).

[2] = tested on: LnCaP; experiment: MTT growth inhibition, prostate cancer cell line LnCaP; type: cell-based, human; settings: for IC50: Homo sapiens, LNCaP, MTT, average of three independent experiments
Experimental: as §1, §2

[3] = tested on: LAPC-4; experiment: MTT growth inhibition, prostate cancer cell line LAPC-4; type: cell-based, human; settings: for IC50: Homo sapiens, LAPC4, MTT, average of three independent experiments
Experimental: as §1, §2

[4] = tested on: ASPC1; experiment: MTT growth inhibition, pancreatic cancer cell line ASPC1; type: cell-based; settings: Homo sapiens, 96-hours treatment, average of three independent experiments
Experimental: (§3) Eight of these analogs 6d, 6h, 6n, 6g, 7b, 7d, 8g, and 8h were tested for their cytotoxicity in seven pancreatic cell lines ASPC1, Panc1, Panc203, Panc430, Pane 1005, MiaPaca2, and HS766T using MTT assay. Cells were trypsinized, seeded at 5×10^3 cells/well in 96-well plate and allowed to grow for 24 hours before the treatment with exponential increasing concentrations of drugs in the presence of 10% FBS. After a 96-hours period of treatment, 20 μl of MTT solution (5 mg/ml in PBS) were added to each well, and the plates were then incubated for 3 hours at 37° C. Medium was then replaced with 100 μl of DMSO per well. Plates were shaken and the optical density was measured at 570 nm using a multiwell plate reader (Bio-Rad, Model 550, Bio-Rad Inc., Hercules, Calif.). Each experiment was performed in triplicate for each drug concentration and was carried out independently at least 3 times. The IC50 value was defined as the concentration needed for a 50% reduction in the absorbance calculated based on the survival curves. Response to drug treatment was assessed by standardizing treatment groups to untreated controls. Compounds activity was compared with compound 1.
(§4) Biology. Table 2 (Growth Inhibition of Pancreatic Cancer Cell Lines by BPU and BPTU Analogues (IC50)^a)compares the cytotoxicity of a series of new derivatives against a panel of seven pancreatic cancer cell lines, as determined by MTT assay. See, Mosmann, T., J. Immunol. Methods 65:55-63 (1983).

[5] = tested on: Panc1; experiment: MTT growth inhibition, pancreatic cancer cell line Panc1; type: cell-based; settings: for IC50: Homo sapiens, PANC-1, MTT, 96-hours treatment, average of three independent experiments
Experimental: as §3, §4

[6] = tested on: Panc203; experiment: MTT growth inhibition, pancreatic cancer cell line Panc203; type: cell-based; settings: for IC50: Homo sapiens, Panc203, MTT, 96-hours treatment, average of three independent experiments
Experimental: as §3, §4

[7] = tested on: Panc430; experiment: MTT growth inhibition, pancreatic cancer cell line Panc430; type: cell-based; settings: for IC50: Pancreatic cancer cell, MTT, 96-hours treatment, average of three independent experiments
Experimental: as §3, §4

[8] = tested on: Panc1005; experiment: MTT growth inhibition, pancreatic cancer cell line Panc1005; type: cell-based; settings: Homo sapiens, 96-hours treatment, average of three independent experiments
Experimental: as §3, §4

[9] = tested on: Miapaca2; experiment: MTT growth inhibition, pancreatic cancer cell line Miapaca2; type: cell-based; settings: for IC50: Homo sapiens, MIA PaCa-2, MTT, 96-hours treatment, average of three independent experiments
Experimental: as §3, §4

[10] = tested on: HS766; experiment: MTT growth inhibition, pancreatic cancer cell line HS766; type: cell-based; settings: Homo sapiens, Hs 766, 96-hours treatment, average of three independent experiments
Experimental: as §3, §4

[11] = tested on: seven pancreatic cell lines; experiment: MTT growth inhibition, panel of seven pancreatic cancer cell lines; type: cell-based; settings: for times more potent than compound 1, pancreatic cell lines: MTT, seven pancreatic cell lines
Experimental: as §3, §4

[12] = tested on: prostate cancer cell lines CWR22R, LAPC-4 and LnCap; experiment: MTT growth inhibition, prostate cancer cell lines (panel); type: cell-based, human; settings: preliminary screening
Experimental: as §1, with “In the preliminary screening four BPU sulfur analogs 6l, 6h, 6n, 7d and 8h were screened and their activity was compared with compound 1.” left out
as §2

[13] = tested on: MCF-7 cells; experiment: Apoptosis of MCF-7 cells; type: cell-based; settings: 48 hours
[14] = tested on: tubulin (colchicine binding site); experiment: Inhibition of [3H]colchicine binding

SMILES | IC50 [4] | IC50 [5] | IC50 [6] | IC50 [7] | IC50 [8] | IC50 [9] | IC50 [10] | also measured
O=C(NC(=O)c1ccccc1[N+](=O)[O-])Nc1ccc(Sc2ncccn2)cc1 [Compound 6l] |  |  |  |  |  |  |  | IC50 [1]: 5 µM; IC50 [2]: 0.5 µM; IC50 [3]: 0.6 µM
N=C(NC(=O)c1ccccc1)Oc1ccc(Sc2ncc(Br)cn2)cc1 [Compound 6g] | > 10 µM | > 10 µM | 7.5 µM | 2 µM | > 10 µM | 5 µM | 5.5 µM | 
Nc1ccccc1C(=O)NC(=O)Nc1ccc(Sc2ncc(Br)cn2)cc1 [Compound 7d, 1-(2-Aminobenzoyl)-3-[4-(5-bromopyrimidin-2-ylsulfanyl)phenyl]urea] |  |  |  |  |  |  |  | increase in activity of 7d compared to 7c, Panc1 ([5]; sulfide versus ether link): 39 fold; increase in activity of 7d compared to 7c, Panc203 ([6]; sulfide versus ether link): > 117 fold; increase in activity of 7d compared to 7c, Panc430 ([7]; sulfide versus ether link): > 50 fold; increase in activity of 7d compared to 7c, Miapaca2 ([9]; sulfide versus ether link): 9 fold; increase in activity of 7d compared to 7c, LAPC-4 ([3]; sulfide versus ether link): 7 fold; times more potent than compound 1, pancreatic cell lines [11]: 20 time; times more potent than compound 1, prostate cancer cell lines [12]: 20 times
Cc1cc(NC(=O)NC(=O)c2ccccc2N(C)C)ccc1Oc1ncc(Br)cn1 [Compound 1] |  |  |  |  |  |  |  | rate of apoptosis, MCF-7 cells ([13]; 10 nM): 16.1%; rate of apoptosis, MCF-7 cells ([13]; 30 nM): 19.5%; rate of apoptosis, MCF-7 cells ([13]; 100 nM): 27.7%
O=C(NC(=O)c1ccccc1[N+](=O)[O-])Nc1ccc(Oc2nccc(Br)n2)cc1 [Compound 6m] |  |  |  |  |  |  |  | binding to the colchicine binding site (in words) [14]: poor binding affinity
O=C(NC(=O)c1ccccc1[N+](=O)[O-])Nc1ccc(Sc2ncc(Br)cn2)cc1 [Compound 6n, 1-[4-(5-Bromopyrimidin-2-ylsulfanyl)phenyl]-3-(2-nitrobenzoyl)-urea] |  |  |  |  |  |  |  | increase in potency of 6n over 6m, Panc1 ([5]; sulfide versus ether link): 8 fold; increase in potency of 6n over 6m, Panc203 ([6]; sulfide versus ether link): 14 fold; increase in potency of 6n over 6m, Mia-paca2 ([9]; sulfide versus ether link): 8 fold; increase in potency of 6n over 6m, CWR22R ([1]; sulfide versus ether link): 100 fold; increase in potency of 6n over 6m, LnCap ([2]; sulfide versus ether link): 20 fold; killing of MCF-7 cells compared with 1 (in words) [13]: more potent than 1; binding to the colchicine binding site (in words) [14]: poor binding affinity; times more potent than compound 1, pancreatic cell lines [11]: 20 time; times more potent than compound 1, prostate cancer cell lines [12]: 20 times
Nc1ccccc1C(=O)NC(=O)Nc1ccc(Sc2ncccn2)cc1 [Compound 7b] | 6 µM | 7.5 µM | 5.5 µM | 6.5 µM | > 10 µM | 7 µM | 8 µM | 
O=C(NC(=O)c1ccccc1[N+](=O)[O-])Nc1ccc([S+]([O-])c2ncc(Br)cn2)cc1 (stereo not shown) [Compound 8g, 1-[4-(5-Bromopyrimidine-2-sulfinyl)phenyl]-3-(2-nitrobenzoyl)-urea] | 2.5 µM | 6.5 µM | 5.5 µM | 5.5 µM | 5.5 µM | 8 µM | 6.5 µM | IC50 ([11]; Pancreatic cancer cell, all the cell lines of the panel): 2.5 to 8 µM
O=C(NC(=S)Nc1ccc(Sc2ncc(Br)cn2)cc1)c1ccccc1 [Compound 6h] | 10 µM | 9.5 µM | > 10 µM | 7.5 µM | > 10 µM | 10 µM | 8.5 µM | IC50 [1]: > 10 µM; IC50 [2]: > 10 µM; IC50 [3]: 6 µM

Source: US7595326B2, “Synthesis of novel tubulin polymerization inhibitors: benzoylphenylurea (BPU) sulfur analogs” (Champions Biotechnology, Inc., priority 2005, dated 2009)
